Laboratory results published in the Kinase Knowledgebase extract (Sharma et al. 2016).

Biological target: MAPK14 (human) (UniProt Q16539)
Experiment: Inhibition of MAPK14 Kinase Activity

Chain of MAPK14 (human) (Q16539 whole entry, looked up): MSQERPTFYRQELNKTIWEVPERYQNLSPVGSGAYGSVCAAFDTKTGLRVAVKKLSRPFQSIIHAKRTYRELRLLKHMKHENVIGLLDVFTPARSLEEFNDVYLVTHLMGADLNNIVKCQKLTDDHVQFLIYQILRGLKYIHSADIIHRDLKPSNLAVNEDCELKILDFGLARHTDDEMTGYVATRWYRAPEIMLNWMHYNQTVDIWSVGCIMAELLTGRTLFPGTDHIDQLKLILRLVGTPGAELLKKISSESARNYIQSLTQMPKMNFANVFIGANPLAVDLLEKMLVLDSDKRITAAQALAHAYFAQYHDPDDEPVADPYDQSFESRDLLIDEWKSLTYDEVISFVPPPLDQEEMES

| SMILES | IC50 |
| --- | --- |
| CN1CCC(C(=O)Nc2sc3c(ccc(=O)n3-c3ccccc3Cl)c2C(=O)c2ccccc2)CC1 | < 2000 nM |
| O=C(c1cccc(C(F)(F)F)c1)c1c(NC(=O)C2CCNCC2)sc2c1ccc(=O)n2-c1ccccc1 | < 2000 nM |
| O=C(c1ccccc1)c1c(NC(=O)N2CC[C@@H](O)C2)sc2c1ccc(=O)n2-c1ccccc1 | < 2000 nM |
| N[C@H]1CCN(C(=O)Nc2sc3c(ccc(=O)n3-c3ccccc3)c2C(=O)c2ccccc2)C1 | < 2000 nM |
| O=C(c1ccccc1)c1c(NCC2CNC2)sc2c1ccc(=O)n2-c1ccccc1 | < 2000 nM |
| Cc1cc(C(=O)c2c(NC3CNC3)sc3c2ccc(=O)n3CC2CC2)ccc1F | < 2000 nM |
| CC(=O)Nc1sc2c(ccc(=O)n2-c2ccccc2F)c1C(=O)c1cccc(C)c1 | < 2000 nM |
| Cc1cc(C(=O)c2c(NC(=O)N3CCN(C)CC3)sc3c2ccc(=O)n3-c2ccccc2)ccc1F | < 2000 nM |
| Cc1cc(C(=O)c2c(NC(=O)C3CCNCC3)sc3c2ccc(=O)n3-c2ccccc2)ccc1F | < 2000 nM |
| Nc1sc2c(ccc(=O)n2-c2ccccc2)c1C(=O)c1ccccc1F | < 2000 nM |
| Nc1sc2c(ccc(=O)n2-c2ccccc2)c1C(=O)c1ccccc1OC(F)(F)F | < 2000 nM |
| CN(C)C1CN(c2sc3c(ccc(=O)n3-c3ccccc3)c2C(=O)c2ccccc2)C1 | < 2000 nM |
| Cc1ccccc1C(=O)c1c(N)sc2c1ccc(=O)n2-c1ccccc1 | < 2000 nM |
| Cc1cc(C(=O)c2c(NC(=O)N3CC[C@@H](N(C)C)C3)sc3c2ccc(=O)n3-c2ccccc2)ccc1F | < 2000 nM |
| CC(=O)Nc1sc2c(ccc(=O)n2-c2ccccc2F)c1C(=O)c1ccc(F)c(C)c1 | < 2000 nM |
| Cc1cccc(C(=O)c2c(N)sc3c2ccc(=O)n3-c2ccccc2)c1 | < 2000 nM |
| Nc1sc2c(ccc(=O)n2-c2ccccc2)c1C(=O)c1cccc(C(F)(F)F)c1 | < 2000 nM |
| Nc1sc2c(ccc(=O)n2-c2ccccc2)c1C(=O)c1ccccc1 | < 2000 nM |
| Nc1sc2c(ccc(=O)n2-c2ccccc2)c1C(=O)c1ccc(F)cc1 | < 2000 nM |
| CCN1CCC(Nc2sc3c(ccc(=O)n3-c3ccccc3)c2C(=O)c2ccc(F)c(C)c2)CC1 | < 2000 nM |
| Nc1sc2c(ccc(=O)n2-c2ccccc2)c1C(=O)c1cccc(OC(F)F)c1 | < 2000 nM |
| COc1ccccc1C(=O)c1c(N)sc2c1ccc(=O)n2-c1ccccc1 | < 2000 nM |
| Cc1cc(C(=O)c2c(NC(=O)N[C@@H]3CCNC3)sc3c2ccc(=O)n3-c2ccccc2)ccc1F | < 2000 nM |
| CCN1CC(Nc2sc3c(ccc(=O)n3-c3ccccc3)c2C(=O)c2ccc(F)c(C)c2)C1 | < 2000 nM |
| Cc1cc(C(=O)c2c(N[C@H]3CCNC3)sc3c2ccc(=O)n3-c2ccccc2)ccc1F | < 2000 nM |

| SMILES | IC50 |
| --- | --- |
| Cc1cc(C(=O)c2c(N)sc3c2ccc(=O)n3-c2ccccc2F)ccc1F | < 2000 nM |
| CC(=O)Nc1sc2c(ccc(=O)n2-c2ccccc2)c1C(=O)c1cccc(OC(F)(F)F)c1 | < 2000 nM |
| CC(=O)Nc1sc2c(ccc(=O)n2-c2ccccc2Cl)c1C(=O)c1cccc(C)c1 | < 2000 nM |
| O=C(c1ccccc1)c1c(NC(=O)[C@@H]2CCCN2)sc2c1ccc(=O)n2-c1ccccc1 | < 2000 nM |
| Nc1sc2c(ccc(=O)n2-c2ccc(F)cc2)c1C(=O)c1ccccc1 | < 2000 nM |
| CN(C)C(=O)c1sc2c(ccc(=O)n2-c2ccccc2)c1C(=O)c1ccccc1 | < 2000 nM |
| Cc1cccc(C(=O)c2c(NC(=O)NCC(C)(C)O)sc3c2ccc(=O)n3-c2ccccc2)c1 | < 2000 nM |
| Nc1sc2c(ccc(=O)n2-c2c(F)cccc2F)c1C(=O)c1ccccc1 | < 2000 nM |
| Cc1cccc(C(=O)c2c(NC(=O)NNS(C)(=O)=O)sc3c2ccc(=O)n3-c2ccccc2)c1 | < 2000 nM |
| CC(=O)Nc1sc2c(ccc(=O)n2-c2ccccc2)c1C(=O)c1cccc(Br)c1 | < 2000 nM |
| CC(=O)Nc1sc2c(ccc(=O)n2-c2ccccc2)c1C(=O)c1ccc(C)cc1 | < 2000 nM |
| Cc1cc(C(=O)c2c(N[C@@H]3CCN(C)C3)sc3c2ccc(=O)n3-c2ccccc2)ccc1F | < 2000 nM |
| Nc1sc2c(ccc(=O)n2-c2ccccc2)c1C(=O)c1ccccn1 | < 2000 nM |
| Nc1sc2c(ccc(=O)n2-c2ccccc2)c1C(=O)c1cccc(Cl)c1 | < 2000 nM |
| Nc1sc2c(ccc(=O)n2-c2ccccc2)c1C(=O)c1ccc(Cl)cc1 | < 2000 nM |
| Cc1cc(C(=O)c2c(NC3CCN(C)CC3)sc3c2ccc(=O)n3-c2ccc(F)cc2)ccc1F | < 2000 nM |
| CCN1CCC(Nc2sc3c(ccc(=O)n3-c3ccccc3)c2C(=O)c2ccccc2)CC1 | < 2000 nM |
| N[C@H]1CC[C@H](Nc2sc3c(ccc(=O)n3-c3ccccc3)c2C(=O)c2ccccc2)CC1 | < 2000 nM |
| CC(C)(O)CNC(=O)Nc1sc2c(ccc(=O)n2-c2ccccc2Cl)c1C(=O)c1ccccc1 | < 2000 nM |
| Cc1cc(C(=O)c2c(N[C@@H]3CCNC3)sc3c2ccc(=O)n3-c2ccccc2)ccc1F | < 2000 nM |
| CC(=O)Nc1sc2c(ccc(=O)n2-c2ccccc2)c1C(=O)c1cccs1 | < 2000 nM |
| CN(C)[C@@H]1CCN(C(=O)Nc2sc3c(ccc(=O)n3-c3ccccc3)c2C(=O)c2ccccc2)C1 | < 2000 nM |
| O=C(c1ccccc1)c1c([N+](=O)[O-])sc2c1ccc(=O)n2-c1ccccc1 | < 2000 nM |
| Cc1cc(C(=O)c2c(NC3CNC3)sc3c2ccc(=O)n3-c2c(F)cccc2F)ccc1F | < 2000 nM |
| Nc1sc2c(ccc(=O)n2-c2ccccc2)c1C(=O)c1ccc(F)c(Cl)c1 | < 2000 nM |

| SMILES | IC50 |
| --- | --- |
| Cc1cc(C(=O)c2c(NC3CN(C)C3)sc3c2ccc(=O)n3-c2ccccc2)ccc1F | < 2000 nM |
| Nc1sc2c(ccc(=O)n2-c2ccccc2)c1C(=O)c1cccc(F)c1 | < 2000 nM |
| NC(=O)CNc1sc2c(ccc(=O)n2-c2ccccc2)c1C(=O)c1ccccc1 | < 2000 nM |
| CC(=O)Nc1sc2c(ccc(=O)n2-c2ccccc2)c1C(=O)c1cccc(C)n1 | < 2000 nM |
| CCN1CCC(C(=O)Nc2sc3c(ccc(=O)n3-c3ccccc3)c2C(=O)c2ccccc2)CC1 | < 2000 nM |
| CN1CCC(Nc2sc3c(ccc(=O)n3-c3ccc(F)cc3)c2C(=O)c2ccccc2)CC1 | < 2000 nM |
| N#Cc1cccc(C(=O)c2c(N)sc3c2ccc(=O)n3-c2ccccc2)c1 | < 2000 nM |
| CN1CC[C@H](NC(=O)Nc2sc3c(ccc(=O)n3-c3ccccc3)c2C(=O)c2ccccc2)C1 | < 2000 nM |
| Cc1cc(C(=O)c2c(NC3CCN(C(C)C)CC3)sc3c2ccc(=O)n3-c2ccccc2)ccc1F | < 2000 nM |
| CN(C)c1ccc(-n2c(=O)ccc3c(C(=O)c4ccccc4)c(N)sc32)cn1 | < 2000 nM |
| O=C(NCCO)Nc1sc2c(ccc(=O)n2-c2ccccc2)c1C(=O)c1ccccc1 | < 2000 nM |
| CC(=O)Nc1sc2c(ccc(=O)n2-c2ccccc2Cl)c1C(=O)c1ccccc1 | < 2000 nM |
| CC(C)N1CC(Nc2sc3c(ccc(=O)n3-c3ccccc3)c2C(=O)c2ccccc2)C1 | < 2000 nM |
| CC(=O)Nc1sc2c(ccc(=O)n2-c2ccccc2)c1C(=O)c1cccc(OC(F)F)c1 | < 2000 nM |
| Cc1cccc(C(=O)c2c(N)sc3c2ccc(=O)n3-c2ccccc2Cl)c1 | < 2000 nM |
| C=CCNC(=O)Nc1sc2c(ccc(=O)n2-c2ccccc2)c1C(=O)c1cccc(C)c1 | < 2000 nM |
| O=C(c1ccccc1)c1c(C(=O)N2CCCC2)sc2c1ccc(=O)n2-c1ccccc1 | < 2000 nM |
| CN1CCC(Nc2sc3c(ccc(=O)n3-c3ccccc3)c2C(=O)c2ccc(F)c(Cl)c2)CC1 | < 2000 nM |
| Cc1cc(C(=O)c2c(NC3CN(C)C3)sc3c2ccc(=O)n3CC2CC2)ccc1F | < 2000 nM |
| Cc1cccc(C(=O)c2c(NC(=O)N3CCC3)sc3c2ccc(=O)n3-c2ccccc2)c1 | < 2000 nM |
| Cc1cccc(C(=O)c2c(N3CCC3)sc3c2ccc(=O)n3-c2ccccc2)c1 | < 2000 nM |
| CC(=O)Nc1sc2c(ccc(=O)n2-c2ccccc2Cl)c1C(=O)c1ccc(F)c(C)c1 | < 2000 nM |
| Cc1ccc(-n2c(=O)ccc3c(C(=O)c4ccc(F)c(C)c4)c(N)sc32)cc1 | < 2000 nM |
| NC(=O)c1sc2c(ccc(=O)n2-c2ccccc2)c1C(=O)c1cccc(Cl)c1 | < 2000 nM |
| Nc1sc2c(ccc(=O)n2-c2ccccc2)c1C(=O)c1nccs1 | < 2000 nM |

| SMILES | IC50 |
| --- | --- |
| O=C(c1ccccc1)c1c(NC(=O)[C@H]2CCCN2)sc2c1ccc(=O)n2-c1ccccc1 | < 2000 nM |
| CN1CC[C@@H](NC(=O)Nc2sc3c(ccc(=O)n3-c3ccccc3)c2C(=O)c2ccccc2)C1 | < 2000 nM |
| Nc1sc2c(ccc(=O)n2-c2ccccc2)c1C(=O)c1cccs1 | < 2000 nM |
| CC(=O)Nc1sc2c(ccc(=O)n2-c2ccccc2)c1C(=O)c1cccc(C(F)(F)F)c1 | < 2000 nM |
| Cc1cccc(C(=O)c2c(NS(C)(=O)=O)sc3c2ccc(=O)n3-c2ccccc2)c1 | < 2000 nM |
| CC(=O)Nc1sc2c(ccc(=O)n2-c2ccccc2)c1C(=O)c1ccccc1C#N | < 2000 nM |
| CN1CC[C@H](Nc2sc3c(ccc(=O)n3-c3ccccc3)c2C(=O)c2ccccc2)C1 | < 2000 nM |
| Cc1ccc(C(=O)c2c(N)sc3c2ccc(=O)n3-c2ccccc2)cc1 | < 2000 nM |
| Cc1cccc(C(=O)c2c(NC(=O)OC(C)(C)C)sc3c2ccc(=O)n3-c2ccccc2)c1 | < 2000 nM |
| Cc1cc(C(=O)c2c(NC(=O)NC(C)(C)CO)sc3c2ccc(=O)n3-c2ccccc2Cl)ccc1F | < 2000 nM |
| NC(=O)c1sc2c(ccc(=O)n2-c2ccccc2)c1C(=O)c1ccc(F)cc1F | < 2000 nM |
| Cc1ccc(C(=O)c2c(N)sc3c2ccc(=O)n3-c2ccccc2)cc1C | < 2000 nM |
| CC(C)(CO)NC(=O)Nc1sc2c(ccc(=O)n2-c2ccccc2)c1C(=O)c1ccccc1 | < 2000 nM |
| Cc1cccc(C(=O)c2c(NC3CCN(C(C)C)CC3)sc3c2ccc(=O)n3-c2ccccc2)c1 | < 2000 nM |
| CN1CCC[C@H]1C(=O)Nc1sc2c(ccc(=O)n2-c2ccccc2)c1C(=O)c1ccccc1 | < 2000 nM |
| Cc1cc(C(=O)c2c(NC(=O)NCC(C)(C)O)sc3c2ccc(=O)n3-c2ccccc2)ccc1F | < 2000 nM |
| NC(=O)c1sc2c(ccc(=O)n2-c2ccccc2)c1C(=O)c1ccc(F)c(Cl)c1 | < 2000 nM |
| Nc1sc2c(ccc(=O)n2-c2ccccc2)c1C(=O)c1ccc(F)cc1F | < 2000 nM |
| Cc1cccc(C(=O)c2c(NC(N)=O)sc3c2ccc(=O)n3-c2ccccc2)c1 | < 2000 nM |
| Cc1ccc(-n2c(=O)ccc3c(C(=O)c4ccccc4)c(N)sc32)cc1 | < 2000 nM |
| CC(=O)Nc1sc2c(ccc(=O)n2-c2ccccc2)c1C(=O)c1ccc(C)c(C)c1 | < 2000 nM |
| O=C(c1ccccc1)c1c(NC2CCNCC2)sc2c1ccc(=O)n2-c1ccccc1 | < 2000 nM |
| O=C(c1ccccc1)c1c(NC(=O)C2CCNCC2)sc2c1ccc(=O)n2-c1ccccc1 | < 2000 nM |
